From patent US6352958B1, “Cycloimido-substituted benzofused heterocyclic herbicides” (FMC Corporation, priority 1997, dated 2002)

Assays:
Assay type in all cases: in vivo
[1] = tested on: morningglory (Ipomea lacunosa or Ipomea hederacea); assay: Postemergence herbicidal activity, morningglory; conditions: rate of application 0.3 Kg/Ha, rated after 12-17 days
[2] = tested on: wheat (Triticum aestivum var. Lew); assay: Postemergence herbicidal activity, wheat; conditions: rate of application 0.3 Kg/Ha, rated after 12-17 days
[3] = tested on: Johnsongrass (Sorghum halepense); assay: Postemergence herbicidal activity, johnsongrass; conditions: rate of application 0.3 Kg/Ha, rated after 12-17 days
[4] = tested on: green foxtail (Setaria viridis); assay: Postemergence herbicidal activity, green foxtail; conditions: rate of application 0.3 Kg/Ha, rated after 12-17 days
[5] = tested on: wheat (Triticum aestivum var. Lew); assay: Preemergence herbicidal activity, wheat; conditions: Rate of Application 0.3 Kg/Ha, examined after 12-17 days
[6] = tested on: soybean (Glycine max var. Winchester); assay: Preemergence herbicidal activity, soybean; conditions: Rate of Application 0.3 Kg/Ha, examined after 12-17 days
[7] = tested on: common chickweed (Stellaria media); assay: Preemergence herbicidal activity, chickweed; conditions: Rate of Application 0.3 Kg/Ha, examined after 12-17 days
[8] = tested on: velvetleaf (Abutilon theophrasti); assay: Preemergence herbicidal activity, velvetleaf; conditions: Rate of Application 0.3 Kg/Ha, examined after 12-17 days
[9] = tested on: field corn (Zea mays var. Pioneer 3732); assay: Postemergence herbicidal activity, corn; conditions: rate of application 0.3 Kg/Ha, rated after 12-17 days
[10] = tested on: morningglory (Ipomea lacunosa or Ipomea hederacea); assay: Preemergence herbicidal activity, morningglory; conditions: Rate of Application 0.3 Kg/Ha, examined after 12-17 days
[11] = tested on: field corn (Zea mays var. Pioneer 3732); assay: Preemergence herbicidal activity, corn; conditions: Rate of Application 0.3 Kg/Ha, examined after 12-17 days
[12] = tested on: common cocklebur (Xanthium strumarium L.); assay: Preemergence herbicidal activity, cocklebur; conditions: Rate of Application 0.3 Kg/Ha, examined after 12-17 days
[13] = tested on: green foxtail (Setaria viridis); assay: Preemergence herbicidal activity, green foxtail; conditions: Rate of Application 0.3 Kg/Ha, examined after 12-17 days
[14] = tested on: velvetleaf (Abutilon theophrasti); assay: Postemergence herbicidal activity, velvetleaf; conditions: rate of application 0.3 Kg/Ha, rated after 12-17 days
[15] = tested on: blackgrass (Aloepecurus myosuroides); assay: Postemergence herbicidal activity, blackgrass; conditions: rate of application 0.3 Kg/Ha, rated after 12-17 days
Experimental: (§1) The benzofused heterocyclic compounds of this invention were tested for pre- and postemergence herbicidal activity using a variety of crops and weeds. The test plants included soybean (Glycine max var. Winchester), field corn (Zea mays var. Pioneer 3732), wheat (Triticum aestivum var. Lew), morningglory (Ipomea lacunosa or Ipomea hederacea), velvetleaf (Abutilon theophrasti), green foxtail (Setaria viridis), Johnsongrass (Sorghum halepense), blackgrass (Aloepecurus myosuroides), common chickweed (Stellaria media), and common cocklebur (Xanthium strumarium L.).
(§2) For preemergence testing, two disposable fiber flats (8 cm×15 cm×25 cm) for each rate of application of each candidate herbicide were filled to an approximate depth of 6.5 cm with steam-sterilized sandy loam soil. The soil was leveled and impressed with a template to provide five evenly spaced furrows 13 cm long and 0.5 cm deep in each flat. Seeds of soybean, wheat, corn, green foxtail, and johnsongrass were planted in the furrows of the first flat, and seeds of velvetleaf, morningglory, common chickweed, cocklebur, and blackgrass were planted in the furrows of the second flat. The five-row template was employed to firmly press the seeds into place. A topping soil of equal portions of sand and sandy loam soil was placed uniformly on top of each flat to a depth of approximately 0.5 cm. Flats for postemergence testing were prepared in the same manner except that they were planted 9-14 days prior to the preemergence flats and were placed in a greenhouse and watered, thus allowing the seeds to germinate and the foliage to develop.
(§3) In both pre- and postemergence tests, a stock solution of the candidate herbicide was prepared by dissolving 0.27 g of the compound in 20 mL of water/acetone (50/50) containing 0.5% v/v sorbitan monolaurate. For an application rate of 3000 g/ha of herbicide a 10 mL portion of the stock solution was diluted with water/acetone (50/50) to 45 mL.
(§4) The preemergence flats were initially subjected to a light water spray. The four flats were placed two by two along a conveyor belt (i.e., the two preemergence followed by the two postemergence flats). The conveyor belt fed under a spray nozzle mounted about ten inches above the post-emergent foliage. The preemergent flats were elevated on the belt so that the soil surface was at the same level below the spray nozzle as the foliage canopy of the postemergent plants. The spray of herbicidal solution was commenced and once stabilized, the flats were passed under the spray at a speed to receive a coverage equivalent of 100 L/ha. At this coverage the application rates are those shown in the above table for the individual herbicidal solutions. The preemergence flats were watered immediately thereafter, placed in the greenhouse and watered regularly at the soil surface. The postemergence flats were immediately placed in the green-house and not watered until 24 hours after treatment with the test solution. Thereafter they were regularly watered at ground level. After 12-17 days the plants were examined and the phytotoxicity data were recorded.
(§5) Phytotoxicity data were taken as percent control. Percent control was determined by a method similar to the 0 to 100 rating system disclosed in “Research Methods in Weed Science,” 2nd ed., B. Truelove, Ed.; Southern Weed Science Society; Auburn University, Auburn, Ala., 1977.

[16] = tested on: soybean (Glycine max var. Winchester); assay: Postemergence herbicidal activity, soybean; conditions: rate of application 0.3 Kg/Ha, rated after 12-17 days
[17] = tested on: Johnsongrass (Sorghum halepense); assay: Preemergence herbicidal activity, johnsongrass; conditions: Rate of Application 0.3 Kg/Ha, examined after 12-17 days
[18] = tested on: blackgrass (Aloepecurus myosuroides); assay: Preemergence herbicidal activity, blackgrass; conditions: Rate of Application 0.3 Kg/Ha, examined after 12-17 days
Experimental: as §1, §2, §3, §4, §5

[19] = tested on: common chickweed (Stellaria media); assay: Postemergence herbicidal activity, chickweed; conditions: rate of application 0.3 Kg/Ha, rated after 12-17 days
[20] = tested on: common cocklebur (Xanthium strumarium L.); assay: Postemergence herbicidal activity, cocklebur; conditions: rate of application 0.3 Kg/Ha, rated after 12-17 days

SMILES | Postemergence herbicidal activity (% control) IPOSS [1] [%] | Postemergence herbicidal activity (% control) WHT [2] [%] | Postemergence herbicidal activity (% control) SORHA [3] [%] | Postemergence herbicidal activity (% control) SETVI [4] [%] | PREEMERGENCE HERBICIDAL ACTIVITY (% CONTROL) WHT [5] [%] | PREEMERGENCE HERBICIDAL ACTIVITY (% CONTROL) SOY [6] [%] | PREEMERGENCE HERBICIDAL ACTIVITY (% CONTROL) STEME [7] [%] | PREEMERGENCE HERBICIDAL ACTIVITY (% CONTROL) ABUTH [8] [%] | Postemergence herbicidal activity (% control) CRN [9] [%] | PREEMERGENCE HERBICIDAL ACTIVITY (% CONTROL) IPOSS [10] [%] | PREEMERGENCE HERBICIDAL ACTIVITY (% CONTROL) CRN [11] [%] | PREEMERGENCE HERBICIDAL ACTIVITY (% CONTROL) XANPE [12] [%] | PREEMERGENCE HERBICIDAL ACTIVITY (% CONTROL) SETVI [13] [%] | Postemergence herbicidal activity (% control) ABUTH [14] [%] | Postemergence herbicidal activity (% control) ALOMY [15] [%] | Postemergence herbicidal activity (% control) SOY [16] [%] | PREEMERGENCE HERBICIDAL ACTIVITY (% CONTROL) SORHA [17] [%] | PREEMERGENCE HERBICIDAL ACTIVITY (% CONTROL) ALOMY [18] [%] | Postemergence herbicidal activity (% control) STEME [19] [%] | Postemergence herbicidal activity (% control) XANPE [20] [%]
C#CCOc1nc2c(-n3c(=O)cc(C(F)(F)F)n(C)c3=O)c(F)cc(Br)c2o1 [Compound 106] | 100 | 30 | 70 | 100 | 40 | 30 | 95 | 100 | 75 | 100 | 70 | 60 | 90 | 100 | 60 | 80 | 55 | 70 |  | 
CC(=O)OCc1nc2c(-n3c(=O)cc(C(F)(F)F)n(C)c3=O)c(F)cc(Br)c2o1 [Compound 101] | 100 | 50 | 65 | 65 | 70 | 80 |  | 100 | 80 | 100 | 100 | 80 | 100 | 100 | 60 | 95 | 100 | 80 |  | 
CC(=O)OC(C)c1cc2c(Cl)cc(F)c(-n3c(=O)cc(C(F)(F)F)n(C)c3=O)c2o1 (centres unmarked) [Compound 246] | 100 | 100 | 100 | 100 | 100 | 100 | 100 | 100 | 100 | 100 | 100 | 100 | 100 | 100 |  | 95 | 100 | 100 | 100 | 100
Cn1c(C(F)(F)F)cc(=O)n(-c2c(F)cc(Br)c3oc(COc4ccc(Cl)cc4)nc23)c1=O [Compound 102] | 100 | 30 | 60 | 90 | 30 | 20 |  | 100 | 75 | 70 | 10 | 50 | 100 | 100 | 60 | 80 | 60 | 90 |  | 
Cn1c(C(F)(F)F)cc(=O)n(-c2c(F)cc(Cl)c3[nH]c(C(F)F)nc23)c1=O [Compound 364] | 100 | 40 | 100 | 100 | 60 | 100 | 100 | 100 | 80 | 100 | 80 | 100 | 100 | 100 |  | 95 | 80 | 80 | 100 | 100
CC(OC(=O)c1ccccc1)c1cc2c(Cl)cc(F)c(-n3c(=O)cc(C(F)(F)F)n(C)c3=O)c2o1 (centres unmarked) [Compound 248] | 100 | 50 | 100 | 100 | 90 | 100 | 100 | 100 | 95 | 100 | 95 | 100 | 100 | 100 |  | 80 | 100 | 95 | 100 | 100
CC(=O)OC(C)(C)c1nc2c(-n3c(=O)cc(C(F)(F)F)n(C)c3=O)c(F)cc(Cl)c2[nH]1 [Compound 371] | 100 | 100 | 100 | 100 | 95 | 100 | 100 | 100 | 100 | 100 | 100 | 100 | 100 | 100 |  | 95 | 100 | 100 | 100 | 100
